Reference: publication PMC11528125, “Characterization of O-methyltransferases in the biosynthesis of phenylphenalenone phytoalexins based on the telomere-to-telomere gapless genome of Musella lasiocarpa” (Horticulture Research, 2024)

Legend:
Assay in all cases: MTase-Glo methyltransferase assay (SAH luminescence), Michaelis-Menten fit
Format in all cases: biochemical, Musella lasiocarpa
Ml08G0855 = tested on: T1, Ml08G0855; conditions: 2 mM SAM, 45°C, 30 min; Tris-HCl; read-out: apparent Km
T1 construct: MBP fusion from pMAL-c4x (EcoRI/SalI), E. coli BL21 (DE3), purified

Ml01G0494 = tested on: T2, Ml01G0494; conditions: 2 mM SAM, 45°C, 30 min; Tris-HCl; read-out: apparent Km
T2 construct: MBP fusion from pMAL-c4x (EcoRI/SalI), E. coli BL21 (DE3), purified

[1] = substrate: O=C1C(O)=Cc2cccc3ccc(-c4ccccc4)c1c23; conditions: 2 mM SAM, 45°C, 30 min, Tris-HCl
Text: (§1) MTase-Glo methyltransferase assay (SAH luminescence), Michaelis-Menten fit on Ml04G2958 | The apparent Kcat/Km values of Ml01G0494, Ml04G2958, and Ml08G0855 for MLT3 | the apparent Kcat/Km values of Ml01G0494, Ml04G2958, and Ml08G0855 for MLT4

[2] = substrate: O=C1C(O)=Cc2cccc3ccc(-c4ccc(O)cc4)c1c23; conditions: 2 mM SAM, 45°C, 30 min, Tris-HCl
Text: as §1

Km (Ml08G0855) [µM]	Km (Ml01G0494) [µM]	Molecule	Km [1] [µM]	kcat [1] [s⁻¹]	Km [2] [µM]	kcat [2] [s⁻¹]
111 ± 27.4	60.4 ± 16.6	O=C1C(O)=Cc2cccc3ccc(-c4ccc(O)cc4)c1c23 [MLT3]	–	–	–	–
37.3 ± 10.7	8.51 ± 0.13	O=C1C(O)=Cc2cccc3ccc(-c4ccccc4)c1c23 [MLT4]	–	–	–	–
81.9	971	O=C1C(O)=Cc2c(-c3ccc(O)c(O)c3)ccc3cccc1c23 [MLT9]	–	–	–	–
–	–	Ml04G2958 (Musella lasiocarpa) (protein, MBP fusion from pMAL-c4x (EcoRI/SalI), E. coli BL21 (DE3), purified) MAGPHVVDAVGEHSEPYKSASRAHHHHYRHHSSLPLRTMGSVRAAAAALQPSPEEDEEACLQAGQLVSSSVLPMTLKAAIELQLLEIIVGAGPGARLSPADVAAQLPTTNPQAAAMVDRILRLLAAYGIVGCSVEAGPDGRPCRKYGAAPVCKYLTRNEDGVSFAALSLMNQDKVLMESWYHLKDAVLEGGIPFNKAYGMTAFEYHGTDPRFNKVFNEGMRSHSIIITKKLLQVYRGFDDVKVLVDVGGGTGATLHMITSTHPHILGINYDLPHVISDAPPLPGVEHVSGDMFESVPGGDAILMKWILHDWSDEHCAKILKNCWKALPEKGKLIAVECVLPVVPEPSLRTQSVCHVDLIMLAHNPGGKERTEMEFEELAKQAGFSGFKPTYVYASTWALEFTK	5.30 ± 0.68	0.00033	69.94 ± 14.71	0.0005
